In patent publication US11752149B2, “Muscarinic acetylcholine M1 receptor antagonists” (Pipeline Therapeutics, Inc., priority 2019, dated 2023):
Where two headings read alike, the source gives them in different places.

How the values were obtained:
Type in all cases: cell-based
human M1 receptor = human M1 receptor (Homo sapiens (Human), UniProt P11229); assay: In vitro functional assay of muscarinic acetylcholine receptor activity, aequorin calcium flux, reversal of EC80 acetylcholine
Method: (§1) CHO-K1 cells stably expressing human M1 receptor with aequorin (Perkin Elmer) were grown in F12 media (Gibco) containing 10% FBS (ATCC), 0.4 mg/mL geneticin (Sigma-Aldrich) and 0.25 mg/mL Zeocin (Invitrogen). Cells were grown as per the manufacturer's protocol. For compound testing, cells were grown to confluency and detached gently with Accutase (Sigma-Aldrich) followed by centrifugation for 5 min at 150×g. Cells were then re-suspended in assay buffer (i.e. DMEM/F-12 HEPES without phenol red (Invitrogen) with 0.1% BSA (Sigma-Aldrich)) at a density of 5×10^6 cells/ml. Under sterile conditions, 5 μM coelenterazine (Invitrogen) was added to the cells, mixed, then incubated at room temperature protected from light, with gentle agitation, for 4 h.
(§2) Primary compound plates were prepared in 100% DMSO in opaque 96-well plates (VWR) and serially diluted in half log increments. Secondary compound plates were prepared at 3× concentration in assay buffer. Compounds were added to white, clear bottom tissue culture treated 96-well plates (Fisher Scientific). Coelenterazine-loaded cells were then added at 5×10^5 cells/well.
(§3) Compounds and cells were incubated at room temperature for 30 min in the dark. Acetylcholine at the EC80 concentration was added and calcium flux measured using a FlexStation 3 (Molecular Devices). Sigmoidal dose-response curves were generated by measuring luminescence over 40 sec and calculating the area under the curve. Dose response curves and IC50 values were generated using Prism (GraphPad). Compounds were tested at a final concentration range of 100 pM to 10 μM in 0.1% DMSO.

human M2 receptor = human M2 receptor (Homo sapiens (Human), UniProt P08172); assay: Aequorin calcium flux assay, reversal of EC80 acetylcholine response, M2
Chain of human M2 receptor (P08172 whole entry): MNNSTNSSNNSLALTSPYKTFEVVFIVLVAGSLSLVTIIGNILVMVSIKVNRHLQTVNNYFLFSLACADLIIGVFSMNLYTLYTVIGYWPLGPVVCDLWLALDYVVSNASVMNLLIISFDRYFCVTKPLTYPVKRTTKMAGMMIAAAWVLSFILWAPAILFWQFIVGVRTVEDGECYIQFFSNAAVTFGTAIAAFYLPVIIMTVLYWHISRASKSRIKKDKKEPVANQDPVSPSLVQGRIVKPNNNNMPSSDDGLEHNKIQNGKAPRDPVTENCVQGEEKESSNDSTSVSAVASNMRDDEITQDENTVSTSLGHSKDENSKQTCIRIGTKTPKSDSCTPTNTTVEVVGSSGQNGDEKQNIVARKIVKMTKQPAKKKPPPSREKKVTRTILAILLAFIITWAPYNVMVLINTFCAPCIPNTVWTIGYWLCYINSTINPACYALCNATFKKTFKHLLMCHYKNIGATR
Method: as §1, §2, §3
(§4) CHO-K1 cells stably expressing human M2, M3 and M4 receptors, respectively, with aequorin (Perkin Elmer) were used to assess a test compound's ability to dose-dependently reverse the EC80 acetylcholine response. The IC50 of the compounds was calculated from the dose response curve.

human M3 receptor = human M3 receptor (Homo sapiens (Human), UniProt P20309); assay: Aequorin calcium flux assay, reversal of EC80 acetylcholine response, M3
Chain of human M3 receptor (P20309 whole entry, looked up): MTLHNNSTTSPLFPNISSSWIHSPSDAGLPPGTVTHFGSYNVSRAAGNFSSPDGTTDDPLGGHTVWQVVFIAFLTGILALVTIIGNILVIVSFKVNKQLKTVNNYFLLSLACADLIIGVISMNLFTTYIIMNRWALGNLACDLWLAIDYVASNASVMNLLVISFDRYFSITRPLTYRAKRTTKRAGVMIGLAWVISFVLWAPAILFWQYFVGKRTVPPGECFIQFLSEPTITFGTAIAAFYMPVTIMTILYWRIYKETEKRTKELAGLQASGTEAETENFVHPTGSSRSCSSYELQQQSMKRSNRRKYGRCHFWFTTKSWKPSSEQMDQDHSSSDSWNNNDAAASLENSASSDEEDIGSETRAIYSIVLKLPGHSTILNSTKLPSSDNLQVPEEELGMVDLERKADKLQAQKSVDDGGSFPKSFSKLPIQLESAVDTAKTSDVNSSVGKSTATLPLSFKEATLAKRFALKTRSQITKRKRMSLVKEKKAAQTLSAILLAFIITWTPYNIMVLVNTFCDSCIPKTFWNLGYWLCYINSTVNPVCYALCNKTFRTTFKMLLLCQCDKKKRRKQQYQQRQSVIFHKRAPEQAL
Method: as §1, §2, §3, §4

human M4 receptor = human M4 receptor (Homo sapiens (Human), UniProt P08173); assay: Aequorin calcium flux assay, reversal of EC80 acetylcholine response, M4
Chain of human M4 receptor (P08173 whole entry): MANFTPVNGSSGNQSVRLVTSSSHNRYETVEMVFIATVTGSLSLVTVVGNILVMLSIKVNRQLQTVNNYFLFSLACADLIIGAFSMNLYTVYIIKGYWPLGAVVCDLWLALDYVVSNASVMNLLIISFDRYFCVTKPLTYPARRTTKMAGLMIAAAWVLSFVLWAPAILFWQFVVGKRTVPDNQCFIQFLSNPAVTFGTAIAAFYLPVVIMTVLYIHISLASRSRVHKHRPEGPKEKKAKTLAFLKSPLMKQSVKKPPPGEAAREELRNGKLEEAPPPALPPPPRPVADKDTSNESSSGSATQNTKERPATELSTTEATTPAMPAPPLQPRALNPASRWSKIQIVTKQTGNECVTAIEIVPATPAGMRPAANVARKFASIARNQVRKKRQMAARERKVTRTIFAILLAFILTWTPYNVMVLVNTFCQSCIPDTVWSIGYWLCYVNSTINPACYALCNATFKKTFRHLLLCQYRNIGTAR
Method: as §1, §2, §3, §4

[1] = CHO-K1 cells expressing human M1 receptor with aequorin, acetylcholine at EC80, read-out: M1 IC50
[2] = CHO-K1 cells expressing human M2 receptor with aequorin, acetylcholine at EC80, read-out: M2 IC50

Chain of human M1 receptor (P11229 whole entry): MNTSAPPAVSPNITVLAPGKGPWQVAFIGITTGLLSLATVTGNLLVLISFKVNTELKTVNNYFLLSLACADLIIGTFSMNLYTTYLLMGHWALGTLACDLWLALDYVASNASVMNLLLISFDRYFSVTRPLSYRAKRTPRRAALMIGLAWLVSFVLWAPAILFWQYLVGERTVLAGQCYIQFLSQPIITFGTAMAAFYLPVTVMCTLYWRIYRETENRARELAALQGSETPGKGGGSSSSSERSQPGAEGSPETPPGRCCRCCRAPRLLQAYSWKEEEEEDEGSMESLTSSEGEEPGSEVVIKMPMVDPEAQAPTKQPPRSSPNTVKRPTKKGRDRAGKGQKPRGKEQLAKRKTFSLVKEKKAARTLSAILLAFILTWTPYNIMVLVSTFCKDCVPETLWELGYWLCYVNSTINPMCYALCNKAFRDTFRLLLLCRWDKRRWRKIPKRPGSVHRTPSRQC

| Compound | IC50 (human M1 receptor; [1]) [nM] | IC50 (human M2 receptor) [nM] | IC50 (human M3 receptor; CHO-K1 cells expressing human M3 receptor with aequorin, acetylcholine at EC80, read-out: M3 IC50) [nM] | IC50 (human M4 receptor; CHO-K1 cells expressing human M4 receptor with aequorin, acetylcholine at EC80, read-out: M4 IC50) [nM] | IC50 (human M1 receptor) [nM] | IC50 (human M2 receptor; [2]) [nM] | IC50 (human M3 receptor) [nM] | IC50 (human M4 receptor) [nM] |
| --- | --- | --- | --- | --- | --- | --- | --- | --- |
| N#Cc1ccc(N2C3CCC2CN(C(=O)CCS(=O)(=O)c2ccccc2[C@H]2CC2(F)F)C3)nc1 (single isomer, unassigned) [Example 35] | < 10 | 10 to 100 | 100 to 1000 | 10 to 100 |  |  |  |  |
| COc1cccc(S(=O)(=O)CCC(=O)N2CC3CCC(C2)N3c2ccc(C#N)cn2)c1 [Example 2, 6-(3-(3-((3-methoxyphenyl)sulfonyl)propanoyl)-3,8-diazabicyclo[3.2.1]octan-8-yl)nicotinonitrile] |  |  |  |  | 10 to 100 | > 10000 | 100 to 1000 | 100 to 1000 |
| COc1cc(S(=O)(=O)CCC(=O)N2CC3CCC(C2)N3c2ccc(C#N)cn2)ccc1F [Example 3, 6-(3-(3-((4-fluoro-3-methoxyphenyl)sulfonyl)propanoyl)-3,8-diazabicyclo[3.2.1]octan-8-yl)nicotinonitrile] | < 10 |  |  |  |  | > 10000 | 100 to 1000 | 100 to 1000 |
| Cc1c(F)cccc1S(=O)(=O)CCC(=O)N1CC2CCC(C1)N2c1ccc(C#N)cn1 [Example 24, 6-{3-[3-(3-fluoro-2-methylbenzenesulfonyl)propanoyl]-3,8-diazabicyclo [3.2.1]octan-8-yl}pyridine-3-carbonitrile] | < 10 |  |  |  |  | 1000 to 10000 | 100 to 1000 | 100 to 1000 |
